Measurements: patent US4962111A (priority 1989, dated 1990)
Values after ≈ are worked out from the molar mass of the structure shown. Values joined by “and” are separate entries in the source; they are usually repeats but may differ in a detail not shown here. Equal entries are not always repeated.

Columns and labels:
[1] = system: Mycobacterium tuberculosis (laboratory mutant, nitrosoguanidine induced, resistant to pyrazinoic acid); format: cell-based; set-up: MIC: unit not given beside the values
[2] = system: Mycobacterium tuberculosis (laboratory mutant, nitrosoguanidine induced, resistant to pyrazinamide); format: cell-based; set-up: MIC: unit not given beside the values; conditions: for MIC: pH 5.8
M. tb. 311 = experiment: microbe, parasite or virus in culture; format: cell-based; conditions: Mycobacterium tuberculosis, 99% (2 log) inhibition, pH 5.8
[3] = system: Mycobacterial populations; conditions: cited from earlier work

| Compound | MIC (M. tb. 311) [µg/mL] | MIC [2] | other results |
| --- | --- | --- | --- |
| NC(=O)c1cnccn1 [pyrazinamide] | > 200 |  | concentration required to achieve a 99% inhibition of growth [1]: > 200 µg/mL; concentration required to achieve a 99% inhibition of growth [2]: > 200 µg/mL; development of resistance ([3]; when used alone): resistance develops quickly |
| C=CCOC(=O)c1cnccn1 [Allyl Pyrazinoate] | 6.25 (≈ 38.1 µM) |  |  |
| CCCOC(=O)c1cnccn1 [n-Propyl Pyrazinoate] | 6.25 (≈ 37.6 µM) | 12.5 and 6.25 |  |
| O=C(OCC(F)(F)F)c1cnccn1 [β, β, β-Trifluoroethyl Pyrazinoate] | 25 (≈ 121 µM) |  |  |
| Nc1ccc(C(=O)O)c(O)c1 [p-aminosalicylic acid] |  |  | suppression of emergence of resistance ([3]; combination with streptomycin): can delay development of streptomycin resistance |
| Cc1ccc(OC(=O)c2cnccn2)cc1 [p-Tolyl Pyrazinoate] | 12.5 (≈ 58.4 µM) | 12.5 and 25 | MIC ([1]; pH 5.8): 12.5 and 6.25 |
